Patent US6737383B1, “Herbicidal oxadiazolidines” (priority 1999, dated 2004)

Tests used:
[1] = test system: bedstraw; test: Test B pre/postemergence bedstraw; type: in vivo, Galium aparine
Summary of the method: (§1)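 Test chemicals in a non-phytotoxic solvent mixture with surfactant were sprayed preemergence onto planted seeds and postemergence onto plants 2 to 18 cm tall (1- to 4-leaf stage). After twelve to sixteen days in a greenhouse, injury was visually rated against untreated controls from 0 (no effect) to 10 (complete control).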

[2] = test system: blackgrass; test: Test B pre/postemergence blackgrass; type: in vivo, Alopecurus myosuroides
Summary of the method: as §1

[3] = test system: surinam grass; test: Test B pre/postemergence surinam grass; type: in vivo, Brachiaria decumbens
Summary of the method: as §1

[4] = test system: cocklebur; test: Test B pre/postemergence cocklebur; type: in vivo, Xanthium strumarium
Summary of the method: as §1

[5] = test system: corn; test: Test B pre/postemergence corn; type: in vivo, Zea mays
Summary of the method: as §1

[6] = test system: giant foxtail; test: Test B pre/postemergence giant foxtail; type: in vivo, Setaria faberii
Summary of the method: as §1

[7] = test system: morningglory; test: Test B pre/postemergence morningglory; type: in vivo, Ipomoea hederacea
Summary of the method: as §1

[8] = test system: pigweed; test: Test B pre/postemergence pigweed; type: in vivo, Amaranthus retroflexus
Summary of the method: as §1

[9] = test system: rape; test: Test B pre/postemergence rape; type: in vivo, Brassica napus
Summary of the method: as §1

[10] = test system: soybean; test: Test B pre/postemergence soybean; type: in vivo, Glycine max
Summary of the method: as §1

[11] = test system: sugar beet; test: Test B pre/postemergence sugar beet; type: in vivo, Beta vulgaris
Summary of the method: as §1

[12] = test system: velvetleaf; test: Test B pre/postemergence velvetleaf; type: in vivo, Abutilon theophrasti
Summary of the method: as §1

[13] = test system: purple nutsedge; test: Test B pre/postemergence purple nutsedge; type: in vivo, Cyperus rotundus
Summary of the method: as §1

[14] = test system: smallflower flatsedge; test: Test B flood test smallflower flatsedge; type: in vivo, Cyperus difformis
Summary of the method: (§2)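 Each value is a visual injury score relative to controls, with 10 meaning complete control and 0 no effect. Evaluation took place twelve to sixteen days after the 2-leaf-stage plants were treated and kept in the greenhouse.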

[15] = test system: duck salad; test: Test B flood test duck salad; type: in vivo, Heteranthera limosa
Summary of the method: as §2

[16] = test system: bamyardgrass; test: Test B flood test barnyardgrass; type: in vivo, Echinochloa crus-galli
Summary of the method: as §2

[17] = Postemergence, Rate 125 g/ha, scale 0 to 10, 0 is no effect, 10 is complete control
[18] = Preemergence, Rate 62 g/ha, scale of 0 to 10 where 0 is no effect and 10 is complete control
[19] = Preemergence, Rate 250 g/ha, scale of 0 to 10 where 0 is no effect and 10 is complete control
[20] = Preemergence, Rate 500 g/ha, scale of 0 to 10 where 0 is no effect and 10 is complete control
[21] = Rate 62 g/ha, Postemergence, scale 0 to 10 (0 no effect, 10 complete control)
[22] = Rate 500 g/ha, Postemergence, scale 0 to 10, 0 no effect, 10 complete control
[23] = Rate 250 g/ha, Postemergence, scale of 0 to 10 where 0 is no effect and 10 is complete control
[24] = Rate 62 g/ha, headed Pre-emergence (flood test species), scale 0 to 10 (0 no effect, 10 complete control)
[25] = Rate 125 g/ha, Pre-emergence, flood test species, scale 0 to 10 where 0 is no effect and 10 is complete control
[26] = Rate 250 g/ha, Pre-emergence, flood-test species, scale 0 to 10, 0 is no effect, 10 is complete control
[27] = Rate 500 g/ha, Pre-emergence, flood test species, scale 0 to 10 (0 no effect, 10 complete control)

SMILES: Cc1ccc(N(C(=O)n2oc(=O)n(-c3ccc4ccccc4c3)c2=O)C(C)C)cc1 [Compound 334]
- Plant response rating, Bedstraw [1, 17]: 0
- Bedstraw plant response rating [1, 18]: 0
- Bedstraw plant response rating (0 to 10 scale) ([1]; Preemergence, Rate 125 g/ha): 0
- Bedstraw plant response rating [1, 19]: 0
- Bedstraw plant response rating [1, 20]: 0
- Bedstraw plant response rating [1, 21]: 0
- Plant response rating, Bedstraw [1, 22]: 0
- Plant response rating, Blackgrass [2, 17]: 0
- Blackgrass plant response rating [2, 18]: 0
- Blackgrass plant response rating (0 to 10 scale) ([2]; Preemergence, Rate 125 g/ha): 0
- Blackgrass plant response rating [2, 19]: 0
- Blackgrass plant response rating [2, 20]: 0
- Blackgrass plant response rating [2, 21]: 0
- Plant response rating, Blackgrass [2, 23]: 0
- Plant response rating, Blackgrass [2, 22]: 0
- Plant response rating, B. signalgrass [3, 17]: 0
- B. signalgrass plant response rating [3, 18]: 0
- B. signalgrass plant response rating (0 to 10 scale, 0 is no effect, 10 is complete control) ([3]; Preemergence, Rate 125 g/ha): 0
- B. signalgrass plant response rating [3, 19]: 0
- B. signalgrass plant response rating [3, 20]: 0
- B. signalgrass plant response rating [3, 21]: 0
- Plant response rating, B. signalgrass [3, 23]: 0
- Plant response rating, B. signalgrass [3, 22]: 0
- Plant response rating, Cocklebur [4, 17]: 0
- Cocklebur plant response rating [4, 18]: 0
- Cocklebur plant response rating (0 to 10 scale) ([4]; Preemergence, Rate 125 g/ha): 0
- Cocklebur plant response rating [4, 19]: 0
- Cocklebur plant response rating [4, 20]: 0
- Cocklebur plant response rating [4, 21]: 0
- Plant response rating, Cocklebur [4, 22]: 0
- Plant response rating, Corn [5, 17]: 0
- Corn plant response rating [5, 18]: 0
- Corn plant response rating (0 to 10 scale) ([5]; Preemergence, Rate 125 g/ha): 0
- Corn plant response rating [5, 19]: 0
- Corn plant response rating [5, 20]: 0
- Corn plant response rating [5, 21]: 0
- Plant response rating, Corn [5, 22]: 0
- Plant response rating, Giant foxtail [6, 17]: 0
- Giant foxtail plant response rating [6, 18]: 0
- Giant foxtail plant response rating (0 to 10 scale) ([6]; Preemergence, Rate 125 g/ha): 0
- Giant foxtail plant response rating [6, 19]: 0
- Giant foxtail plant response rating [6, 20]: 0
- Giant foxtail plant response rating [6, 21]: 0
- Plant response rating, Giant foxtail [6, 22]: 0
- Plant response rating, Morningglory [7, 17]: 0
- Morningglory plant response rating [7, 18]: 0
- Morningglory plant response rating (0 to 10 scale) ([7]; Preemergence, Rate 125 g/ha): 0
- Morningglory plant response rating [7, 19]: 0
- Morningglory plant response rating [7, 20]: 0
- Morningglory plant response rating [7, 21]: 0
- Plant response rating, Morningglory [7, 22]: 0
- Plant response rating, Redroot pigweed [8, 17]: 0
- Redroot pigweed plant response rating [8, 18]: 0
- Redroot pigweed plant response rating (0 to 10 scale) ([8]; Preemergence, Rate 125 g/ha): 0
- Redroot pigweed plant response rating [8, 19]: 0
- Redroot pigweed plant response rating [8, 20]: 0
- Redroot pigweed plant response rating [8, 21]: 0
- Plant response rating, Redroot pigweed [8, 22]: 0
- Plant response rating, Rape [9, 17]: 0
- Rape plant response rating [9, 18]: 0
- Rape plant response rating (0 to 10 scale) ([9]; Preemergence, Rate 125 g/ha): 0
- Rape plant response rating [9, 19]: 0
- Rape plant response rating [9, 20]: 0
- Rape plant response rating [9, 21]: 0
- Plant response rating, Rape [9, 22]: 0
- Plant response rating, Soybean [10, 17]: 1
- Soybean plant response rating [10, 18]: 0
- Soybean plant response rating (0 to 10 scale) ([10]; Preemergence, Rate 125 g/ha): 0
- Soybean plant response rating [10, 19]: 0
- Soybean plant response rating [10, 20]: 0
- Soybean plant response rating [10, 21]: 1
- Plant response rating, Soybean [10, 22]: 2
- Plant response rating, Sugarbeets [11, 17]: 0
- Sugarbeets plant response rating [11, 18]: 0
- Sugarbeets plant response rating (0 to 10 scale) ([11]; Preemergence, Rate 125 g/ha): 0
- Sugarbeets plant response rating [11, 19]: 0
- Sugarbeets plant response rating [11, 20]: 0
- Sugarbeets plant response rating [11, 21]: 0
- Plant response rating, Sugarbeets [11, 22]: 0
- Plant response rating, Velvetleaf [12, 17]: 0
- Velvetleaf plant response rating [12, 18]: 0
- Velvetleaf plant response rating (0 to 10 scale) ([12]; Preemergence, Rate 125 g/ha): 0
- Velvetleaf plant response rating [12, 19]: 0
- Velvetleaf plant response rating [12, 20]: 0
- Velvetleaf plant response rating [12, 21]: 0
- Plant response rating, Velvetleaf [12, 22]: 0
- Plant response rating, Nutsedge [13, 17]: 0
- Nutsedge plant response rating [13, 18]: 0
- Nutsedge plant response rating (0 to 10 scale) ([13]; Preemergence, Rate 125 g/ha): 0
- Nutsedge plant response rating [13, 19]: 0
- Nutsedge plant response rating [13, 20]: 0
- Nutsedge plant response rating [13, 21]: 0
- Plant response rating, Nutsedge [13, 22]: 0
- S. Flatsedge plant response rating [14, 24]: 0
- S. Flatsedge plant response rating [14, 25]: 0
- S. Flatsedge plant response rating [14, 26]: 0
- S. Flatsedge plant response rating [14, 27]: 0
- Ducksalad plant response rating [15, 24]: 0
- Ducksalad plant response rating [15, 25]: 0
- Ducksalad plant response rating [15, 26]: 0
- Ducksalad plant response rating [15, 27]: 0
- Barnyardgrass plant response rating [16, 24]: 0
- Barnyardgrass plant response rating [16, 25]: 0
- Barnyardgrass plant response rating [16, 26]: 0
- Barnyardgrass plant response rating [16, 27]: 0
